How the values were obtained:
[1] = biological target: T1, Cytochrome P450 1A2 (Homo sapiens, UniProt P05177); assay: Inhibition of CYP1A2 in human liver microsomes using phenacetin as substrate preincubated for 5 mins followed by NADPH addition and measured after 10 mins by LC-MS/MS analysis; assay type: ADME, Microsome
T1 sequence (P05177 whole entry): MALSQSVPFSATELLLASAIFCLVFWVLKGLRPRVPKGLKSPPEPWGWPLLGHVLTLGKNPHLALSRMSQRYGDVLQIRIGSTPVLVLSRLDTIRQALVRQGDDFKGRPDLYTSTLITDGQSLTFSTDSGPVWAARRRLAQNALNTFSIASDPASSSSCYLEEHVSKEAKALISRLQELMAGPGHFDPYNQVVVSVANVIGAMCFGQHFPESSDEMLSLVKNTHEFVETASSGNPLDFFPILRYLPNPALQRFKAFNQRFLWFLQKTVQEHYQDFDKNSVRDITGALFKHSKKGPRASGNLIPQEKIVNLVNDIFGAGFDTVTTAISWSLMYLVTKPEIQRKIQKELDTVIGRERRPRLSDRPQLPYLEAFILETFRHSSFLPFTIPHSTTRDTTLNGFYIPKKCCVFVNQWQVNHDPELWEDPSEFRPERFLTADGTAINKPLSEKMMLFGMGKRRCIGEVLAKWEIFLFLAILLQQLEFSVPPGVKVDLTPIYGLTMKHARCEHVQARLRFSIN

[2] = biological target: Cytochrome P450 2C9 (Homo sapiens, UniProt P11712); assay: Inhibition of CYP2C9 in human liver microsomes using diclofenac as substrate preincubated for 5 mins followed by NADPH addition and measured after 10 mins by LC-MS/MS analysis; assay type: ADME, Microsome
Chain of Cytochrome P450 2C9 (P11712 whole entry): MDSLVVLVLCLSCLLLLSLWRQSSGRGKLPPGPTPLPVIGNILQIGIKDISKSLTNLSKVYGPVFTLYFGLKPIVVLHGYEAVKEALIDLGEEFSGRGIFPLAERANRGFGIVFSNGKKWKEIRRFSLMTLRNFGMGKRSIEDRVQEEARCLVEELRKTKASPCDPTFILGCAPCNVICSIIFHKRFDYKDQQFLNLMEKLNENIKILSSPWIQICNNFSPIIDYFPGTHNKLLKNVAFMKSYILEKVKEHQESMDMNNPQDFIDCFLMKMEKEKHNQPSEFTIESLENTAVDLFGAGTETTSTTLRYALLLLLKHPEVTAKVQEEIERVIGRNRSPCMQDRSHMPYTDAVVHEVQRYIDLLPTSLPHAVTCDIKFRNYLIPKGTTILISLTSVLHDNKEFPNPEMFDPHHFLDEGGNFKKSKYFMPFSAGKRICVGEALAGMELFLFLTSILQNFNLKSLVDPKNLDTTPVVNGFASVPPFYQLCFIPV

[3] = biological target: Cytochrome P450 2C19 (Homo sapiens, UniProt P33261); assay: Inhibition of CYP2C19 in human liver microsomes using S-mephenytoin as substrate preincubated for 5 mins followed by NADPH addition and measured after 45 mins by LC-MS/MS analysis; assay type: ADME, Microsome
Chain of Cytochrome P450 2C19 (P33261 whole entry): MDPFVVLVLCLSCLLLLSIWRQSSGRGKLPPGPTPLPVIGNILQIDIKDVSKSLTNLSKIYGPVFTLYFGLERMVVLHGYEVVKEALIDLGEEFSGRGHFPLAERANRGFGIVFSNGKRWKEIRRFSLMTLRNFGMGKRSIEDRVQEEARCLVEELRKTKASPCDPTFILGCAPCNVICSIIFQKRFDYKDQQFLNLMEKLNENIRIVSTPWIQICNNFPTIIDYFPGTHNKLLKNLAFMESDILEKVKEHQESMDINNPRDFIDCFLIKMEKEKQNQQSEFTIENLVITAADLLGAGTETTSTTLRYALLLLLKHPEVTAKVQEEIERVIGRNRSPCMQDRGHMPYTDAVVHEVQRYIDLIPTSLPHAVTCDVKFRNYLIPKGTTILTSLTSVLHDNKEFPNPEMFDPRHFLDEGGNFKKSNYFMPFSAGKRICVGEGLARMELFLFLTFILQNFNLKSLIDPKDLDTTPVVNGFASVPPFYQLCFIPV

[4] = biological target: Cytochrome P450 2D6 (Homo sapiens, UniProt P10635); assay: Inhibition of CYP2D6 in human liver microsomes using bufuralol as substrate preincubated for 5 mins followed by NADPH addition and measured after 10 mins by LC-MS/MS analysis; assay type: ADME, Microsome
Chain of Cytochrome P450 2D6 (P10635 whole entry): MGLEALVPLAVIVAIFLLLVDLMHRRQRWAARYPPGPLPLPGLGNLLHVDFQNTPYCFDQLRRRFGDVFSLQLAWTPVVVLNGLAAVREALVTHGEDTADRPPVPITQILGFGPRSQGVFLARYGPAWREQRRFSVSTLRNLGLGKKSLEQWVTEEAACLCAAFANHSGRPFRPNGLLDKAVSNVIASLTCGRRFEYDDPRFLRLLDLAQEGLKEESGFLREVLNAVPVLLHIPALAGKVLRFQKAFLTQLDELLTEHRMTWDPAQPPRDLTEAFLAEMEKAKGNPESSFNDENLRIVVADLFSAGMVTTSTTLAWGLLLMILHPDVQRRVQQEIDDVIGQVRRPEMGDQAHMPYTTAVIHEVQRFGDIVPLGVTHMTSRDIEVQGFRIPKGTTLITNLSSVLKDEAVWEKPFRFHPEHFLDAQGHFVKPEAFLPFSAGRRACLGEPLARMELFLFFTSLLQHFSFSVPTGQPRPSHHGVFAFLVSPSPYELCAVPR

[5] = biological target: Cytochrome P450 3A4 (Homo sapiens, UniProt P08684); assay: Inhibition of CYP3A4 in human liver microsomes using testosterone as substrate preincubated for 5 mins followed by NADPH addition and measured after 5 mins by LC-MS/MS analysis; assay type: ADME, Microsome
Chain of Cytochrome P450 3A4 (P08684 whole entry): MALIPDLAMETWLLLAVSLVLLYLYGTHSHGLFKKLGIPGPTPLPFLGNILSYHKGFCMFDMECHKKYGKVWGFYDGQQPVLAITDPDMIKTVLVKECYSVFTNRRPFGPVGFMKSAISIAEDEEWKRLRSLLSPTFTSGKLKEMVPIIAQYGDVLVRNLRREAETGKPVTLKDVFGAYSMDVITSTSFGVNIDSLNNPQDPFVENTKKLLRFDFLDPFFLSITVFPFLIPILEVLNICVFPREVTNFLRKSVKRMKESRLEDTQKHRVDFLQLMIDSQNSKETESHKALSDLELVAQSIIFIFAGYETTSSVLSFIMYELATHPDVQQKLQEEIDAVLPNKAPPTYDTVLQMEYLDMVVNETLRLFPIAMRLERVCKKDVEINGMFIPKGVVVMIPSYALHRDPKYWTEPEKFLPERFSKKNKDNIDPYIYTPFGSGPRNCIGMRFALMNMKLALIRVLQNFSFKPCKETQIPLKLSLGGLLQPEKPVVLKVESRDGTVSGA

[6] = biological target: Voltage-gated inwardly rectifying potassium channel KCNH2 (Homo sapiens, UniProt Q12809); assay: Inhibition of human ERG at 30 uM; assay type: toxicity
Chain of Voltage-gated inwardly rectifying potassium channel KCNH2 (Q12809 whole entry): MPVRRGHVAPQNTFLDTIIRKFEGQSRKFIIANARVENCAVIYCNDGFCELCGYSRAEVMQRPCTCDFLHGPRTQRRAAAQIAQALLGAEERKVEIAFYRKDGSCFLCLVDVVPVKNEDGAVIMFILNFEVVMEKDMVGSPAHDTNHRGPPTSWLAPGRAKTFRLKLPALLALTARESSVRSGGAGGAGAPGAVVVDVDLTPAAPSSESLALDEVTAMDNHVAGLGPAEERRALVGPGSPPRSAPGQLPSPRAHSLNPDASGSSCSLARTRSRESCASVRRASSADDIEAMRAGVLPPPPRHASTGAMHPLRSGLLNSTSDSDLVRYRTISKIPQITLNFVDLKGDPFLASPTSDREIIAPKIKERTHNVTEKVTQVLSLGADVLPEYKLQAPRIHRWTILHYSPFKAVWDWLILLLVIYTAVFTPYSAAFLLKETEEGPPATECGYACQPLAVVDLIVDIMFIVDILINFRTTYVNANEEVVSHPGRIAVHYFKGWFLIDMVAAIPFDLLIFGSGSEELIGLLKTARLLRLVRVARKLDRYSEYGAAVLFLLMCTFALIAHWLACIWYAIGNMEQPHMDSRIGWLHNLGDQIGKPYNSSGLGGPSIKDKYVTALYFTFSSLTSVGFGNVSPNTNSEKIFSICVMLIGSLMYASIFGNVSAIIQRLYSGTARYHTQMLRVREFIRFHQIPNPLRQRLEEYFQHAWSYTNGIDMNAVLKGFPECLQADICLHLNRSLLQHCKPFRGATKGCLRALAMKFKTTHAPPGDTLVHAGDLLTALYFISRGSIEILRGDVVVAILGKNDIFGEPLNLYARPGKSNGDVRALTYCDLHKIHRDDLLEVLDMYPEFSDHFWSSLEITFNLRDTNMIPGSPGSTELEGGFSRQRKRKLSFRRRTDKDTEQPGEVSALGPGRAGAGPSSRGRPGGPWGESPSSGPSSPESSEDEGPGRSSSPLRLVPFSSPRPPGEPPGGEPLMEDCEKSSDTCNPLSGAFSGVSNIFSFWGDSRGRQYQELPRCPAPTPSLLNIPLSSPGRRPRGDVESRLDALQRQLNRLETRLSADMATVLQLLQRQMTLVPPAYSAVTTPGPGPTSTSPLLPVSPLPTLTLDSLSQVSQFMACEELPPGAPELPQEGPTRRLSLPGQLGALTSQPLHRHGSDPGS

[7] = Inhibition of FIH (unknown origin); design: species or system Homo sapiens
[8] = Metabolic stability in rat liver microsomes assessed as intrinsic clearance in presence of NADPH by LC-MS/MS analysis

O=C(O)CNC(=O)c1ncc(-c2cc(-c3cc(Cl)cc(Cl)c3)no2)cc1O
IC50 [1]: > 30 µM | IC50 [2]: > 30 µM | IC50 [3]: > 30 µM | IC50 [4]: > 30 µM | IC50 [5]: > 30 µM | inhibition (INH) [6]: Not_active

O=C(O)Cc1cs/c(=N\C(=O)C2CCN(S(=O)(=O)Cc3ccccc3)C2)n1O (stereo not drawn)
IC50 [7]: 0.28 µM

C[C@]12CC[C@H]3[C@@H](CCC4=CC(=O)CC[C@@]43C)[C@@H]1CC[C@@H]2O [TESTOSTERONE]
microsomal CLint [8]: 1200 µL/min/mg

— ChEMBL document CHEMBL6087392, “Discovery of ZG-2305, an Orally Bioavailable Factor Inhibiting HIF Inhibitor for the Treatment of Obesity and Fatty Liver Disease” (J Med Chem, 2025)
